This is an account of results in patent publication US8354422B2, “Pyrimidine inhibitors of kinase activity” (Abbott Laboratories Inc., priority 2009, dated 2013).

The target in the test is T1, C-terminal GST-tagged, recombinant, human IGF-1R, amino acids 954-1367 (Homo sapiens, UniProt P08069).
T1 construct: human IGF-1R, amino acids 954-1367 expressed by baculovirus in Sf21 cells; GST (C); purchased Cell Signaling Technology; host or cells: baculovirus in Sf21 cells
Put plainly: IGF-1R kinase activity, homogenous time-resolved fluorescence (HTRF) in vitro kinase assay. It is filed as biochemical. The settings on record: IGF-1R kinase HTRF assay, ATP 50 μM, biotinylated peptide substrate 0.5 μM, 60 minutes at room temperature. The procedure, abridged: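 HTRF assay with baculovirus/Sf21-expressed enzyme, 50 μM ATP, 0.5 μM biotinylated peptide substrate, 2% DMSO, in HEPES pH 7.5 buffer with MgCl2, 2 mM MnCl2, BSA, DTT; 60 min at room temperature. EDTA-quenched, detected with streptavidin-APC and Eu-cryptate anti-phosphotyrosine mAb; 615/665 nm ratio used for IC50.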

T1 sequence (P08069 954-1367): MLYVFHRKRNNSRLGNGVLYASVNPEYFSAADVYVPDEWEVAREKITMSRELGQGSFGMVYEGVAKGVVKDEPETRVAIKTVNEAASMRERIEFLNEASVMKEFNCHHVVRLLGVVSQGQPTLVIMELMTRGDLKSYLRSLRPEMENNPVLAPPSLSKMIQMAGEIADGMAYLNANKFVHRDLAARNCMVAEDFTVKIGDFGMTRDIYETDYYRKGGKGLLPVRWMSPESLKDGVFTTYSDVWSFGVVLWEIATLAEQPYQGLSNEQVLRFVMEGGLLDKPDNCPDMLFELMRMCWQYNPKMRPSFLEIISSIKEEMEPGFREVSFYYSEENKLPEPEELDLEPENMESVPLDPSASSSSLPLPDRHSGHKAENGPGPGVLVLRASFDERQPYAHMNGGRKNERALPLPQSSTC

`COc1ccc(CN(C)CCO)cc1Nc1nccc(-c2c(-c3ccc(OCc4ccccc4)c(OC)c3)nc3ccccn23)n1` [Example 64, 2-[{3-[(4-{2-[4-(benzyloxy)-3-methoxyphenyl]imidazo[1,2-a]pyridin-3-yl}pyrimidin-2-yl)amino]-4-methoxybenzyl}(methyl)amino]ethanol]: the 50% inhibitory concentration (IC50) lay within 101 to 500 nM.

Take `COc1ccccc1Nc1nccc(-c2c(-c3ccc(OCc4ccccc4)cc3)nc3sccn23)n1` [Example 79, 4-{6-[4-(benzyloxy)phenyl]imidazo[2,1-b][1,3]thiazol-5-yl}-N-(2-methoxyphenyl)pyrimidin-2-amine]: the IC50 was over 1000 nM.

Turning to `COc1cc(-c2nc3ccccn3c2-c2ccnc(Nc3cccc(N4CCOCC4)c3)n2)ccc1OCc1ccccc1` [Example 25, 4-{2-[4-(benzyloxy)-3-methoxyphenyl]imidazo[1,2-a]pyridin-3-yl}-N-(3-morpholin-4-ylphenyl)pyrimidin-2-amine], the IC50 lay in the range of 101 to 500 nM.

On to `COc1cc(N(C)CCO)ccc1Nc1nccc(-c2c(-c3ccc(OCc4ccccc4)c(OC)c3)nc3ccccn23)n1` [Example 48, 2-[{4-[(4-{2-[4-(benzyloxy)-3-methoxyphenyl]imidazo[1,2-a]pyridin-3-yl}pyrimidin-2-yl)amino]-3-methoxyphenyl}(methyl)amino]ethanol], for which the IC50 lay in the range of 101 to 500 nM.

On to `CS(=O)(=O)c1cccc(Nc2nccc(-c3c(-c4ccc(OCc5ccccc5)cc4)nc4ccccn34)n2)c1` [Example 4, 4-{2-[4-(benzyloxy)phenyl]imidazo[1,2-a]pyridin-3-yl}-N-[3-(methylsulfonyl)phenyl]pyrimidin-2-amine], for which the IC50 is over 1000 nM.

For the compound `COc1ccc(NC(=O)CN(C)C)cc1Nc1nccc(-c2c(-c3ccc(OCc4ccccc4)c(OC)c3)nc3ccccn23)n1` [Example 71, N^1-{3-[(4-{2-[4-(benzyloxy)-3-methoxyphenyl]imidazo[1,2-a]pyridin-3-yl}pyrimidin-2-yl)amino]-4-methoxyphenyl}-N^2,N^2-dimethylglycinamide], the IC50 is under 25 nM.

For `COc1ccccc1COc1ccc(-c2nc3ccccn3c2-c2ccnc(Nc3cccc(CCN(C)C)c3)n2)cc1` [Example 16, N-{3-[2-(dimethylamino)ethyl]phenyl}-4-(2-{4-[(2-methoxybenzyl)oxy]phenyl}imidazo[1,2-a]pyridin-3-yl)pyrimidin-2-amine], the IC50 was in the range of 101 to 500 nM.

With `CN(C)CCc1cccc(Nc2nccc(-c3c(-c4ccc(OCc5ccc(F)cc5)cc4)nc4ccccn34)n2)c1` [Example 20, N-{3-[2-(dimethylamino)ethyl]phenyl}-4-(2-{4-[(4-fluorobenzyl)oxy]phenyl}imidazo[1,2-a]pyridin-3-yl)pyrimidin-2-amine], the IC50 lay within 101 to 500 nM.

For `COc1cc(N2CCOCC2)ccc1Nc1nccc(-c2c(-c3ccc(OCc4ccccc4)cc3)nc3ccccn23)n1` [Example 2, 4-{2-[4-(benzyloxy)phenyl]imidazo[1,2-a]pyridin-3-yl}-N-(2-methoxy-4-morpholin-4-ylphenyl)pyrimidin-2-amine], the 50% inhibitory concentration (IC50) fell in the range of 101 to 500 nM.

For the compound `COc1cc(N2CCC(N(C)C)CC2)ccc1Nc1nccc(-c2c(-c3ccc(OCc4ccccc4)cc3)nc3sccn23)n1` [Example 80, 4-{6-[4-(benzyloxy)phenyl]imidazo[2,1-b][1,3]thiazol-5-yl}-N-{4-[4-(dimethylamino)piperidin-1-yl]-2-methoxyphenyl}pyrimidin-2-amine], the IC50 was in the range of 25 to 100 nM.

For the compound `CCN(CCO)c1cccc(Nc2nccc(-c3c(-c4ccc(OCc5ccccc5)c(OC)c4)nc4ccccn34)n2)c1` [Example 31, 2-[{3-[(4-{2-[4-(benzyloxy)-3-methoxyphenyl]imidazo[1,2-a]pyridin-3-yl}pyrimidin-2-yl)amino]phenyl}(ethyl)amino]ethanol], the IC50 was 101 to 500 nM.

As for `Fc1ccc(Nc2nccc(-c3c(-c4ccc(OCc5ccccc5)cc4)nc4ccccn34)n2)cc1` [Example 28, 4-{2-[4-(benzyloxy)phenyl]imidazo[1,2-a]pyridin-3-yl}-N-(4-fluorophenyl)pyrimidin-2-amine], the IC50 was over 1000 nM.

For the compound `COc1cc(-c2nc3ccccn3c2-c2ccnc(Nc3cccc(CN4CCC(O)C4)c3)n2)ccc1OCc1ccccc1` (stereo not drawn) [Example 70, 1-{3-[(4-{2-[4-(benzyloxy)-3-methoxyphenyl]imidazo[1,2-a]pyridin-3-yl}pyrimidin-2-yl)amino]benzyl}pyrrolidin-3-ol], the IC50 fell in the range of 25 to 100 nM.

`COc1cc(N2CCS(=O)(=O)CC2)ccc1Nc1nccc(-c2c(-c3ccc(OCc4ccccc4)c(OC)c3)nc3ccccn23)n1` [Example 63, 4-{2-[4-(benzyloxy)-3-methoxyphenyl]imidazo[1,2-a]pyridin-3-yl}-N-[4-(1,1-dioxidothiomorpholin-4-yl)-2-methoxyphenyl]pyrimidin-2-amine]: the IC50 was 25 to 100 nM.

As for `COc1cc(C2CCNCC2)ccc1Nc1nccc(-c2c(-c3ccc(OCc4ccccc4)c(OC)c3)nc3ccccn23)n1` [Example 57, 4-{2-[4-(benzyloxy)-3-methoxyphenyl]imidazo[1,2-a]pyridin-3-yl}-N-(2-methoxy-4-piperidin-4-ylphenyl)pyrimidin-2-amine], the IC50 was under 25 nM.

In the case of `CN(C)CCc1cccc(Nc2nccc(-c3c(-c4ccc(OCc5ccccc5)cc4)nn4ncccc34)n2)c1` [Example 76, 4-{2-[4-(benzyloxy)phenyl]pyrazolo[1,5-b]pyridazin-3-yl}-N-{3-[2-(dimethylamino)ethyl]phenyl}pyrimidin-2-amine], the IC50 was under 25 nM.

Take `Cc1cc(-c2nc3ccccn3c2-c2ccnc(Nc3cccc(CCN(C)C)c3)n2)ccc1OCc1ccccc1` [Example 68, 4-{2-[4-(benzyloxy)-3-methylphenyl]imidazo[1,2-a]pyridin-3-yl}-N-{3-[2-(dimethylamino)ethyl]phenyl}pyrimidin-2-amine]: the IC50 is 501 to 1000 nM.

In the case of `COc1cc(-c2nc3ccccn3c2-c2ccnc(Nc3ccc4c(c3)CN(C)CC4)n2)ccc1OCc1ccccc1` [Example 60, N-(4-{2-[4-(benzyloxy)-3-methoxyphenyl]imidazo[1,2-a]pyridin-3-yl}pyrimidin-2-yl)-2-methyl-1,2,3,4-tetrahydroisoquinolin-7-amine], the IC50 fell in the range of 25 to 100 nM.

As for `COc1cc(N2CCOCC2)ccc1Nc1nccc(-c2c(-c3ccc(OCc4ccccc4)c(OC)c3)nc3ccccn23)n1` [Example 39, 4-{2-[4-(benzyloxy)-3-methoxyphenyl]imidazo[1,2-a]pyridin-3-yl}-N-(2-methoxy-4-morpholin-4-ylphenyl)pyrimidin-2-amine], the concentration for half-maximal inhibition (IC50) lay in the range of 101 to 500 nM.

For `COc1cc(-c2nc3ccccn3c2-c2ccnc(Nc3cccc(CCN(C)CCO)c3)n2)ccc1OCc1ccccc1` [Example 38, 2-[(2-{3-[(4-{2-[4-(benzyloxy)-3-methoxyphenyl]imidazo[1,2-a]pyridin-3-yl}pyrimidin-2-yl)amino]phenyl}ethyl)(methyl)amino]ethanol], the IC50 is 25 to 100 nM.

In the case of `COc1cc(N(C)C)ccc1Nc1nccc(-c2c(-c3ccc(OCc4ccccc4)c(OC)c3)nc3sccn23)n1` [Example 81, N^1-(4-{6-[4-(benzyloxy)-3-methoxyphenyl]imidazo[2,1-b][1,3]thiazol-5-yl}pyrimidin-2-yl)-2-methoxy-N^4,N^4-dimethylbenzene-1,4-diamine], the IC50 lay in the range of 25 to 100 nM.
